The text below walks through data of patent EP1080104B1, “CERTAIN HETEROARYL SUBSTITUTED THIOL INHIBITORS OF ENDOTHELIN-CONVERTING ENZYME” (Novartis AG, priority 1998, dated 2005).

Bridges are numbered along the chain shown (N, C = ends). Where no end group is shown, it is not given here.

Experiment [1] concerns the target T1, recombinant human endothelin converting enzyme-1 (rhECE-1) (Homo sapiens, UniProt P42892).
T1 construct: made in house; host or cells: Chinese hamster ovary (CHO) cells; 100,000 x g membrane pellet of the homogenate
T1 sequence (P42892 1-770): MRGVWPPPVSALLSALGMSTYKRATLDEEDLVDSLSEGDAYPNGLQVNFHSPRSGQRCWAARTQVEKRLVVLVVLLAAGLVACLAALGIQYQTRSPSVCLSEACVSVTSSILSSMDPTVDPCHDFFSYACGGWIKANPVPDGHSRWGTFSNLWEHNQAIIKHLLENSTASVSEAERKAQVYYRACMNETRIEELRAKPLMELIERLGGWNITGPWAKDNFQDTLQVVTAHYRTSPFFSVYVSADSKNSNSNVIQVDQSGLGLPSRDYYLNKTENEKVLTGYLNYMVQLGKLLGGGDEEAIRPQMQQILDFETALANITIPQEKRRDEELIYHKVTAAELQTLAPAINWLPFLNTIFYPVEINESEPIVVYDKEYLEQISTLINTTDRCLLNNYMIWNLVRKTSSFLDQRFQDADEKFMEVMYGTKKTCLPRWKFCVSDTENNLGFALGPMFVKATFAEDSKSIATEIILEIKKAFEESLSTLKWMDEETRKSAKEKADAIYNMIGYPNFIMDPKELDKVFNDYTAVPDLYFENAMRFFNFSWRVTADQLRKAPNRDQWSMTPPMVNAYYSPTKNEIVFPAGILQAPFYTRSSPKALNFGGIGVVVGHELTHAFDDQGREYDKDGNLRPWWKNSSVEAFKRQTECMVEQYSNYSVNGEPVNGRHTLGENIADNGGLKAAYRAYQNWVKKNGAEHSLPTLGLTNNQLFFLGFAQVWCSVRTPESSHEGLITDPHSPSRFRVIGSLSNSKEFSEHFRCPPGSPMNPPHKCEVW
Nature of the experiment: in vitro assay for rh-ECE-1 inhibition (radioimmunoassay of ET-1 formed from big ET-1). It is filed as biochemical. Conditions: membrane preparation from CHO cells, human big ET-1 0.2 µM, 2 h at 37 °C.
Method: Cells are harvested by scraping, pelleted by centrifugation, and homogenized at 4 °C in a buffer containing 5 mM MgCl2., 1 µM pepstatin A, 100 µM leupeptin, 1 mM PMSF, and 20 mM Tris, pH 7.0, with a ratio of 2 mL of buffer/mL of cells. The cell debris is removed by brief centrifugation, and the supernatant is centrifuged again at 100,000 x g for 30 minutes. The resulting pellet is resuspended in a buffer containing 200 mM NaCl and 50 mM Tes, pH 7.0, at a protein concentration about 15 mg/mL and stored in aliquots at -80°C.
To assess the effect of an inhibitor on ECE-1 activity, 10 µg of protein is preincubated with the compound at a desired concentration for 20 min at room temperature in 50 mM TES, pH 7.0, and 0.005% Triton X-100 in a volume of 10 µL. […]
Diluted samples (200 µL) obtained from the above enzyme assay are incubated at 4° C overnight with 25 µL each of [^125I]ET-1 (10,000 cpm/tube) and 1:20,000-fold diluted rabbit antibodies that recognize specifically the carboxyl terminal tryptophan of ET-1. […] The supernatant is decanted, and the radioactivity in the pellet is counted in a gamma counter. Total and nonspecific binding are measured in the absence of nonradioactive ET-1 and anti-ET antibodies, respectively.
In order to determine the IC50 value of an inhibitor, a concentration-response curve of each inhibitor is determined. […]

Experiment [2] deals with rabbit antibodies that recognize specifically the carboxyl terminal tryptophan of ET-1. Format: binding. The note with it: mean ± SEM, n = 3 - 5; 4° C overnight.
Method: Diluted samples (200 µL) obtained from the above enzyme assay are incubated at 4° C overnight with 25 µL each of [^125I]ET-1 (10,000 cpm/tube) and 1:20,000-fold diluted rabbit antibodies that recognize specifically the carboxyl terminal tryptophan of ET-1. Goat anti-rabbit antibodies coupled to magnetic beads (70 µg) are then added to each tube, and the reaction mixture is further incubated for 30 min at room temperature. The beads are pelleted using a magnetic rack. The supernatant is decanted, and the radioactivity in the pellet is counted in a gamma counter. Total and nonspecific binding are measured in the absence of nonradioactive ET-1 and anti-ET antibodies, respectively.

In general, IC50 refers to the concentration that inhibits the measured activity by half. As for `CC(C)C[C@H](S)C(=O)NC1(C(=O)N[C@@H](Cc2ccc(-c3cccs3)nc2)C(=O)O)CCCC1` [Example 2(s), 2-{[1-(2-Mercapto-4-methyl-pentanoylamino)-cyclopentanecarbonyl]-amino}-3-[6-(thien-2-yl)-pyridin-3-yl]-propionic acid], the IC50 in experiment [1] is around 4 nM.

In the case of “big ET-1: Human big ET-1, substrate of the ECE-1 assay (CSCSSLMDKECVYFCHLDIIWVNTPEHVVPYGLGSPRS; disulfide 1-15, 3-11; ends not checked; UniProt P05305 53-90, looked up)”, the “IC50 values (displace [125I]ET-1 binding to the antibodies)” value in experiment [2] is recorded as 260,000 ± 66,000 fmol.
